Patent US8202997B2, “Compositions and methods for treating or preventing hypoxic or ischemic injury” (Ikaria, Inc., priority 2008, dated 2012)

Tests used:
[1] = system: hepatic ischemia-reperfusion (I/R) injury; experiment: Murine hepatic ischemia-reperfusion injury model; format: in vivo, mice; settings: for serum liver transaminase (ALT) levels: C57-BL6/J mice, after five hours reperfusion, compared to vehicle
Protocol: The ability of compound (3-1) to provide cytoprotective benefit in a model of hepatic ischemia-reperfusion (I/R) injury was tested in mice.
The mice used in these studies were C57-BL6/J mice, 8-10 weeks, (Jackson Laboratory, Bar Harbor, Me.). Food and water were provided ad libitum. Test animals were allowed to acclimate in a temperature and humidity controlled environment prior to the commencement of experimental procedures.
Mice were anesthetized with ketamine and xylazine and maintained with warming during surgical procedures to induce hepatic ischemia-reperfusion (UR) injury. Specifically, a midline incision was performed to expose the liver, and heparin was injected to prevent blood clotting. Both the hepatic artery and portal vein were clamped with microaneurysm clamps to render the left lateral and median lobes of the liver ischemic. Ischemia proceeded for 45 minutes, with the liver maintained in the peritoneal cavity in its original location and kept moist with gauze soaked with 0.9% normal saline. Control mice received sham surgeries, although hepatic blood flow was not reduced with a microaneurysm clamp. At the end of 45 minutes, microaneurysm clamps were removed. Serum liver transaminase levels (ALT) were tested after five hours of hepatic reperfusion using spectrophotometry and commercially available reagents (Sigma-Aldrich).
Murine hepatic ischemia-reperfusion injury test animals were randomized to four groups. Group 1: vehicle (EtOH/PEG300+0.1% citric acid) treated; Group 2: treatment with 7 mg/kg Compound (3-1); Group 3: treatment with 15.0 mg/kg Compound (3-1). […] ALT levels were reduced in the two treatment groups (7.0 mg/kg, and 15.0 mg/kg), compared to vehicle.

[2] = system: myocardial ischemia-reperfusion (I/R) injury; experiment: Murine myocardial ischemia reperfusion model; format: in vivo, mice
Protocol: The ability of compound (3-1) to provide cardioprotective benefits in a myocardial ischemia-reperfusion (I/R) injury model was tested in mice. In this study, it is shown that bolus administration of compound (3-1) into the left ventricular cavity post-ischemia and five minutes prior to a 24-hour reperfusion period reduced myocardial ischemia and reduced myocardial infarct size as a percentage of risk area. The mice used in these studies were C57-BL6/J mice, 8-10 weeks, (Jackson Laboratory, Bar Harbor, Me.). Food and water were provided ad libitum. Test animals were allowed to acclimate in a temperature and humidity controlled environment prior to the commencement of experimental procedures.
Mice were anesthetized with ketamine and pentobarbital sodium and maintained with warming during surgical procedures to induce myocardial ischemia-reperfusion (I/R) injury. […]
After 24 hours of reperfusion, post-ischemia, mice were anesthetized, intubated, and connected to a rodent ventilator. […] Each of the five myocardial slices (1-mm) were weighed, areas of infarction, area at risk (AAR), and non-ischemic left ventricle were assessed with computer-assisted planimetry by an observer blinded to sample identity. […]
Data were analyzed by 2-way ANOVA with post-hoc Bonferroni analysis using StatView software version 5.0 (SAS Institute). […]

c1ccc(CSSSSCc2ccccc2)cc1 [Compound 3-1, 1,4-dibenzyltetrasulfane]
serum liver transaminase (ALT) levels ([1]; 7 mg/kg intraperitoneal bolus post-ischemia (45 min)): statistically significant reduction | serum liver transaminase (ALT) levels ([1]; 15.0 mg/kg intraperitoneal bolus post-ischemia (45 min)): reduced | liver transaminase alanine aminotransferase (ALT) measured in serum ([1]; mice, intraperitoneal bolus post-hepatic ischemia, immediately prior to five hour reperfusion, dose not given): decreased | myocardial infarct size as a percentage of risk area ([2]; C57-BL6/J mice, 7 mg/kg bolus into left ventricular cavity after 30 minutes ischemia, five minutes prior to 24 hour reperfusion): reduced | myocardial ischemia ([2]; mice, bolus into left ventricular cavity post-ischemia, five minutes prior to 24-hour reperfusion): reduced
